This note sets out measurements from patent publication US11358952B2, “Substituted 4-aminoisoindoline-1,3-dione compounds, compositions thereof, and methods of treatment therewith” (Celgene Corporation, priority 2018, dated 2022).

Some results are limits rather than exact numbers.

This assay deals with SU-DHL-4 cell line. Nature of the assay: SU-DHL-4 cell proliferation assay (Cell Titer-Glo viability). Format: cell-based. Conditions: Homo sapiens; cell viability IC50 activity level, DLBCL cell line SU-DHL-4, 120 hours post-treatment; read-out: SU-DHL-4 Act. The method in brief:
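SU-DHL-4 cells (500/well, RPMI-1640 + 10% FBS) exposed to 20-point compound dilutions (0.5 nM–10 μM, 0.1% DMSO) for 120 h at 37°C, 5% CO2. Viability measured by Cell Titer-Glo luminescence at t0 and at 120 h. IC50 is the concentration giving 50% of DMSO control, from a four-parameter logistic fit.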
For orientation: In ATP-based viability assays light output follows the ATP content of the culture.
Consider `CC1(C)CCC2(CCN(Cc3ccc(CNc4cccc5c4C(=O)N(C4CCC(=O)NC4=O)C5=O)c(F)c3)CC2)O1` (stereo not drawn) [Cpd 145, 4-(4-((2,2-dimethyl-1-oxa-8-azaspiro[4.5]decan-8-yl)methyl)-2-fluorobenzylamino)-2-(2,6-dioxopiperidin-3-yl)isoindoline-1,3-dione], for which the IC50 is less than 200 nM. On to `CC(C)(C)OC1CCN(Cc2ccc(CNc3cccc4c3C(=O)N(C3CCC(=O)NC3=O)C4=O)cc2F)CC1` (stereo not drawn) [Cpd 146, 4-(4-((4-tert-butoxypiperidin-1-yl)methyl)-3-fluorobenzylamino)-2-(2,6-dioxopiperidin-3-yl)isoindoline-1,3-dione], for which the IC50 is less than 200 nM. In the case of `O=C1CCC(N2C(=O)c3cccc(NCc4ccc(CN5CCC6(CCCO6)CC5)c(F)c4)c3C2=O)C(=O)N1` (stereo not drawn) [Cpd 147, 4-(4-(1-oxa-8-azaspiro[4.5]decan-8-ylmethyl)-3-fluorobenzylamino)-2-(2,6-dioxopiperidin-3-yl)isoindoline-1,3-dione], the IC50 lay within 200 to 500 nM. Consider `CC1(C)CCC2(CCN(Cc3ccc(CNc4cccc5c4C(=O)N(C4CCC(=O)NC4=O)C5=O)cc3F)CC2)O1` (stereo not drawn) [Cpd 148, 4-(4-((2,2-dimethyl-1-oxa-8-azaspiro[4.5]decan-8-yl)methyl)-3-fluorobenzylamino)-2-(2,6-dioxopiperidin-3-yl)isoindoline-1,3-dione], for which the IC50 was less than 200 nM. In the case of `NC(=O)c1ccc(N2CCN(Cc3ccc(CNc4cccc5c4C(=O)N(C4CCC(=O)NC4=O)C5=O)c(F)c3)CC2)nc1` (stereo not drawn) [Cpd 149, 6-(4-(4-((2-(2,6-dioxopiperidin-3-yl)-1,3-dioxoisoindolin-4-ylamino)methyl)-3-fluorobenzyl)piperazin-1-yl)nicotinamide], the IC50 is less than 200 nM. As for `O=C1CCC(N2C(=O)c3cccc(NCc4ccc(CN5CCC6(CCNC6=O)CC5)cc4F)c3C2=O)C(=O)N1` (stereo not drawn) [Cpd 150, 2-(2,6-dioxopiperidin-3-yl)-4-(2-fluoro-4-((1-oxo-2,8-diazaspiro[4.5]decan-8-yl)methyl)benzylamino)isoindoline-1,3-dione], the IC50 was less than 200 nM.

With `CN1CCC2(CCN(Cc3ccc(CNc4cccc5c4C(=O)N(C4CCC(=O)NC4=O)C5=O)c(F)c3)CC2)C1=O` (stereo not drawn) [Cpd 151, 2-(2,6-dioxopiperidin-3-yl)-4-(2-fluoro-4-((2-methyl-1-oxo-2,8-diazaspiro[4.5]decan-8-yl)methyl)benzylamino)isoindoline-1,3-dione], the IC50 is less than 200 nM. On to `NC(=O)c1ccc(N2CCN(Cc3ccc(CNc4cccc5c4C(=O)N(C4CCC(=O)NC4=O)C5=O)cc3F)CC2)nc1` (stereo not drawn) [Cpd 152, 6-(4-(4-((2-(2,6-dioxopiperidin-3-yl)-1,3-dioxoisoindolin-4-ylamino)methyl)-2-fluorobenzyl)piperazin-1-yl)nicotinamide], for which the IC50 was in the range of 501 to 750 nM. As to `CN1CCC2(CCN(Cc3ccc(CNc4cccc5c4C(=O)N(C4CCC(=O)NC4=O)C5=O)cc3F)CC2)C1=O` (stereo not drawn) [Cpd 153, 2-(2,6-dioxopiperidin-3-yl)-4-(3-fluoro-4-((2-methyl-1-oxo-2,8-diazaspior[4.5]decan-8-yl)methyl)benzylamino)isoindoline-1,3-dione], the IC50 is 501 to 750 nM.

As for `O=C1CCC(N2C(=O)c3cccc(NCc4ccc(CN5CCOCC5)cc4F)c3C2=O)C(=O)N1` (stereo not drawn) [Cpd 154, 2-(2,6-dioxopiperidin-3-yl)-4-(2-fluoro-4-(morpholinomethyl)benzylamino) isoindoline-1,3-dione], the IC50 lay within 200 to 500 nM. The figure for `Cc1cc(CNc2cccc3c2C(=O)N(C2CCC(=O)NC2=O)C3=O)ccc1CN1CCOCC1` (stereo not drawn) [Cpd 155, 2-(2,6-dioxopiperidin-3-yl)-4-(3-methyl-4-(morpholinomethyl)benzylamino) isoindoline-1,3-dione] is 751 to 1000 nM. Turning to `CCC1(OC)CCN(Cc2ccc(CNc3cccc4c3C(=O)N(C3CCC(=O)NC3=O)C4=O)c(F)c2)CC1` (stereo not drawn) [Cpd 156, 2-(2,6-dioxopiperidin-3-yl)-4-(4-((4-ethyl-4-methoxypiperidin-1-yl)methyl)-2-fluorobenzylamino)isoindoline-1,3-dione], the IC50 is less than 200 nM. In the case of `CCC1(OC)CCN(Cc2ccc(CNc3cccc4c3C(=O)N(C3CCC(=O)NC3=O)C4=O)cc2F)CC1` (stereo not drawn) [Cpd 157, 2-(2,6-dioxopiperidin-3-yl)-4-(4-((4-ethyl-4-methoxypiperidin-1-yl)methyl)-3-fluorobenzylamino)isoindoline-1,3-dione] it was less than 200 nM; in that of `CCOC1(C)CCN(Cc2ccc(CNc3cccc4c3C(=O)N(C3CCC(=O)NC3=O)C4=O)c(F)c2)CC1` (stereo not drawn) [Cpd 158, 2-(2,6-dioxopiperidin-3-yl)-4-(4-((4-ethoxy-4-methylpiperidin-1-yl)methyl)-2-fluorobenzylamino)isoindoline-1,3-dione], less than 200 nM; in that of `CCOC1(C)CCN(Cc2ccc(CNc3cccc4c3C(=O)N(C3CCC(=O)NC3=O)C4=O)cc2F)CC1` (stereo not drawn) [Cpd 159, 2-(2,6-dioxopiperidin-3-yl)-4-(4-((4-ethoxy-4-methylpiperidin-1-yl)methyl)-3-fluorobenzylamino)isoindoline-1,3-dione], less than 200 nM. On to `CCS(=O)(=O)N1CCN(Cc2ccc(CNc3cccc4c3C(=O)N(C3CCC(=O)NC3=O)C4=O)c(F)c2)CC1` (stereo not drawn) [Cpd 160, 2-(2,6-dioxopiperidin-3-yl)-4-(4-((4-(ethylsulfonyl)piperazin-1-yl)methyl)-2-fluorobenzylamino)isoindoline-1,3-dione], for which the IC50 was less than 200 nM. Turning to `CCS(=O)(=O)N1CCN(Cc2ccc(CNc3cccc4c3C(=O)N(C3CCC(=O)NC3=O)C4=O)cc2F)CC1` (stereo not drawn) [Cpd 161, 2-(2,6-dioxopiperidin-3-yl)-4-(4-((4-(ethylsulfonyl)piperazin-1-yl)methyl)-3-fluorobenzylamino)isoindoline-1,3-dione], the IC50 is less than 200 nM. Take `O=C1CCC(N2C(=O)c3cccc(NCc4ccc(CN5CC6(CCC6)C5)c(F)c4)c3C2=O)C(=O)N1` (stereo not drawn) [Cpd 162, 4-(4-(2-azaspiro[3.3]heptan-2-ylmethyl)-3-fluorobenzylamino)-2-(2,6-dioxopiperidin-3-yl)isoindoline-1,3-dione]: the IC50 was 200 to 500 nM.

For `O=C1CCC(N2C(=O)c3cccc(NCc4ccc(CN5Cc6ccccc6C5)cc4)c3C2=O)C(=O)N1` (stereo not drawn) [Cpd 163, 2-(2,6-dioxopiperidin-3-yl)-4-(4-(isoindolin-2-ylmethyl)benzylamino)isoindoline-1,3-dione], the IC50 is less than 200 nM.

Take `O=C1CCC(N2C(=O)c3cccc(NCc4ccc(CN5Cc6cccc(C(F)(F)F)c6C5)cc4)c3C2=O)C(=O)N1` (stereo not drawn) [Cpd 164, 2-(2,6-dioxopiperidin-3-yl)-4-(4-((4-(trifluoromethyl)isoindolin-2-yl)methyl)benzylamino)isoindoline-1,3-dione]: the IC50 fell in the range of 200 to 500 nM. As to `O=C1CCC(N2C(=O)c3cccc(NCc4ccc(CN5CC(c6ccccn6)C5)cc4F)c3C2=O)C(=O)N1` (stereo not drawn) [Cpd 165, 2-(2,6-dioxopiperidin-3-yl)-4-(2-fluoro-4-((3-(pyridin-2-yl)azetidin-1-yl)methyl)benzylamino)isoindoline-1,3-dione], the IC50 was less than 200 nM. The figure for `O=C1CCC(N2C(=O)c3cccc(NCc4ccc(CN5CCC(c6ccccn6)CC5)cc4F)c3C2=O)C(=O)N1` (stereo not drawn) [Cpd 166] is less than 200 nM; for `O=C1CCC(N2C(=O)c3cccc(NCc4ccc(CN5CCC(O)(c6ccccn6)CC5)cc4F)c3C2=O)C(=O)N1` (stereo not drawn) [Cpd 167, 2-(2,6-dioxopiperidin-3-yl)-4-(2-fluoro-4-((4-hydroxy-4-(pyridin-2-yl)piperidin-1-yl)methyl)benzylamino)isoindoline-1,3-dione] it is less than 200 nM. For the compound `O=C1CCC(N2C(=O)c3cccc(NCc4ccc(CN5CCC(F)(c6ccccn6)CC5)cc4F)c3C2=O)C(=O)N1` (stereo not drawn) [Cpd 168, 2-(2,6-dioxopiperidin-3-yl)-4-(2-fluoro-4-((4-fluoro-4-(pyridin-2-yl)piperidin-1-yl)methyl)benzylamino)isoindoline-1,3-dione], the IC50 was less than 200 nM.

Consider `O=C1CCC(N2C(=O)c3cccc(NCc4ccc(CN5CC(N6CCCC6=O)C5)cc4F)c3C2=O)C(=O)N1` (stereo not drawn) [Cpd 169, 2-(2,6-dioxopiperidin-3-yl)-4-(2-fluoro-4-((3-(2-oxopyrrolidin-1-yl)azetidin-1-yl)methyl)benzylamino)isoindoline-1,3-dione], for which the IC50 is less than 200 nM. Consider `O=C1CCC(N2C(=O)c3cccc(NCc4ccc(CN5CCC(N6CCCC6=O)CC5)cc4F)c3C2=O)C(=O)N1` (stereo not drawn) [Cpd 170, 2-(2,6-dioxopiperidin-3-yl)-4-(2-fluoro-4-((4-(2-oxopyrrolidin-1-yl)piperidin-1-yl)methyl)benzylamino)isoindoline-1,3-dione], for which the IC50 is less than 200 nM. Turning to `O=C1CCC(N2C(=O)c3cccc(NCc4ccc(CN5CC(N6CCOCC6)C5)cc4F)c3C2=O)C(=O)N1` (stereo not drawn) [Cpd 171, 2-(2,6-dioxopiperidin-3-yl)-4-(2-fluoro-4-((3-morpholinoazetidin-1-yl)methyl)benzylamino)isoindoline-1,3-dione], the IC50 is less than 200 nM.

Consider `O=C1CCC(N2C(=O)c3cccc(NCc4ccc(CN5CCC(N6CCCS6(=O)=O)CC5)cc4F)c3C2=O)C(=O)N1` (stereo not drawn) [Cpd 172, 4-((4-((4-(1,1-dioxidoisothiazolidin-2-yl)piperidin-1-yl)methyl)-2-fluorobenzyl)amino)-2-(2,6-dioxopiperidin-3-yl)isoindoline-1,3-dione], for which the IC50 is less than 200 nM.

As to `CCS(=O)(=O)C1CCN(Cc2ccc(CNc3cccc4c3C(=O)N(C3CCC(=O)NC3=O)C4=O)c(F)c2)CC1` (stereo not drawn) [Cpd 173], the IC50 is less than 200 nM.

For the compound `CC(C)S(=O)(=O)C1CCN(Cc2ccc(CNc3cccc4c3C(=O)N(C3CCC(=O)NC3=O)C4=O)c(F)c2)CC1` (stereo not drawn) [Cpd 174, 2-(2,6-dioxopiperidin-3-yl)-4-(2-fluoro-4-((4-(isopropylsulfonyl)piperidin-1-yl)methyl)benzylamino)isoindoline-1,3-dione], the IC50 was less than 200 nM.
